# Measurements published in PMC5677544 (Analytical chemistry, 2017).
# Where two headings read alike, the source gives them in different places.
# Assays:
# Assay in all cases: ESI-MS titration
# Assay type in all cases: binding
# [1] = target: T1, β-2-microglobulin (β2m) (Homo sapiens, UniProt P61769)
# [2] = target: T1, β-2-microglobulin (β2m); remark: listed apart in the source
# [3] = target: T1, β-2-microglobulin (β2m); remark: listed apart in the source
# T1 sequence (P61769 21-119): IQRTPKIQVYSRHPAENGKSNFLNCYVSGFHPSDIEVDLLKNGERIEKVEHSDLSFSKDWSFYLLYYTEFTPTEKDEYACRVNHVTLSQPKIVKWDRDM
smiles,measurement,setting,value
C[C@H]1c2cccc(O)c2C(=O)C2=C(O)[C@]3(O)C(=O)C(C(N)=O)=C(O)[C@@H](N(C)C)[C@@H]3[C@@H](O)[C@@H]21 [doxycycline],Kd,[1],200 ± 20 µM
CO[C@H]1/C=C/O[C@@]2(C)Oc3c(C)c(O)c4c(O)c(cc(O)c4c3C2=O)NC(=O)/C(C)=C\C=C\[C@H](C)[C@H](O)[C@@H](C)[C@@H](O)[C@@H](C)[C@H](OC(C)=O)[C@@H]1C [rifamycin SV],Kd,[2],250 ± 25 µM
Cc1ccc(C(=O)Nc2ccc(S(=O)(=O)O)c3cc(S(=O)(=O)O)cc(S(=O)(=O)O)c23)cc1NC(=O)c1cccc(NC(=O)Nc2cccc(C(=O)Nc3cc(C(=O)Nc4ccc(S(=O)(=O)O)c5cc(S(=O)(=O)O)cc(S(=O)(=O)O)c45)ccc3C)c2)c1 [suramin],Kd,[3],40 ± 2 µM
